For assay [1], the system named is Mycobacterium tuberculosis. Put plainly: Antimycobacterial activity against Mycobacterium tuberculosis H37Ra by microplate alamar blue assay. In kind it is functional. Background: Alamar Blue is a resazurin reagent that responds to reducing activity.
The subject of assay [2] is Plasmodium falciparum. Nature of the assay: Antimalarial activity against multidrug-resistant Plasmodium falciparum K1 assessed as [3H]-hypoxanthine uptake at 10 ug/mL after 24 hrs by scintillation counting. It counts as functional, organism-based.
Assay [3] has as its system KB. Put plainly: Cytotoxicity against human KB cells by sulforhodamine B assay. It counts as functional, cell-based. Background: In SRB staining, fixed cells bind dye roughly in proportion to their protein.
The test system of assay [4] is Plasmodium falciparum. Put plainly: Antimalarial activity against multidrug-resistant Plasmodium falciparum K1 assessed as [3H]-hypoxanthine uptake after 24 hrs by scintillation counting.
For assay [5], the system named is MCF7. Put plainly: Cytotoxicity against human MCF7 cells by sulforhodamine B assay. In kind it is functional, cell-based.
The test system of assay [6] is NCI-H187. Nature of the assay: Cytotoxicity against human NCI-H187 cells by sulforhodamine B assay. It counts as functional, cell-based.

We go through seven compounds from ChEMBL document CHEMBL1833843, “Diarylpropanes and an arylpropyl quinone from Combretum griffithii” (J Nat Prod, 2011).

What is called MIC is the smallest concentration in the dilution series that meets the test's criterion for growth inhibition. As a reminder, the IC50 is the concentration needed to halve the response being measured.

In brackets after ≈: the same amount, converted by molar mass. Activity calls are given as the source filed them.

The compound `COc1ccc(CCCc2ccc(O)c(OC)c2)c(O)c1` returned an MIC in assay [1] of 3.13 µg/mL (≈ 10.9 µM). Also, in assay [2], the outcome was inactive. The same compound displayed an IC50 in assay [3] of 2.18 µg/mL (≈ 7.56 µM).
Take `COc1cc(O)c(O)cc1CCCc1ccc(OC)c(OC)c1`: the result in assay [2] was inactive.
Turning to `C[C@H]1[C@@H](O)O[C@@H]2O[C@@]3(C)CC[C@H]4[C@H](C)CC[C@@H]1[C@@]24OO3` [ARTENIMOL], the IC50 in assay [4] stood at 0.001 µg/mL (≈ 0.00352 µM).
As to `COc1cc(CCCc2cc(OC)c(O)cc2OC)ccc1O` [GRIFFITHANE A], the outcome in assay [2] was inactive. For the same compound, the IC50 in assay [3] amounted to 2.13 µg/mL (≈ 6.69 µM).
On to `COc1cc(CCCc2ccc(OC)c(O)c2OC)ccc1O` [GRIFFITHANE B], for which the result in assay [2] was inactive. In addition, in assay [3], the IC50 came out at 5.67 µg/mL (≈ 17.8 µM).
As to `COC1=CC(=O)C(CCCc2ccc(O)c(OC)c2)=CC1=O` [GRIFFITHANE D], the IC50 in assay [5] amounted to 6.75 µg/mL (≈ 22.3 µM); in assay [3], 1.42 µg/mL (≈ 4.7 µM); in assay [6], 1.08 µg/mL (≈ 3.57 µM). In addition, the result in assay [2] was inactive.
In assay [1], `NNC(=O)c1ccncc1` [ISONIAZID] had a minimum inhibitory concentration (MIC) of 0.23 µg/mL (≈ 1.68 µM).
